Experiment [1] has as its target Vascular endothelial growth factor receptor 2 (Homo sapiens, UniProt P35968). The experiment is described as follows: Inhibition of N-terminal GST-tagged human VEGFR2 (805 to 1356 residues) expressed in a baculovirus infected Sf9 insect cell incubated for 45 mins by Kinase-Glo max reagent-based luminescence assay. (In general: Kinase-Glo measures the ATP left after a reaction by luminescence.)

In experiment [2] the target is Cyclin-dependent kinase 2/cyclin E1 (Homo sapiens, UniProt P24941). The experiment is described as follows: Inhibition of CDK2/cyclin E (unknown origin) expressed in baculovirus infected Sf21 insect cells using histone H1 as substrate in presence of [gamma33P]ATP.
The test system of another experiment is MCF7. The experiment is described as follows: Cytotoxicity against human MCF-7 cells incubated for 72 hrs by MTT assay. Format: functional, cell-based. The following applies: MCF7, 72 h. On the technique in general: Tetrazolium assays rely on reduction of a dye to a coloured formazan, in cell work by metabolically active cells.
The next experiment deals with HepG2. The experiment is described as follows: Cytotoxicity against human HepG2 cells incubated for 72 hrs by MTT assay. In kind it is functional, cell-based. The following applies: HepG2, 72 h.
Another experiment has as its system A549. The experiment is described as follows: Cytotoxicity against human A549 cells incubated for 72 hrs by MTT assay. Format: functional, cell-based. The following applies: A549, 72 h.
For experiment [3], the species on record is Homo sapiens. The experiment is described as follows: Selectivity index, ratio of IC50 for human JAK1 expressed in baculovirus expression system to IC50 for human JAK3 expressed in baculovirus expression system.
For experiment [4], the species on record is Homo sapiens. As to the kind of experiment: Selectivity index, ratio of IC50 for human JAK2 expressed in baculovirus expression system to IC50 for human JAK3 expressed in baculovirus expression system.
In experiment [5] the target is T1, Tyrosine-protein kinase JAK3 (Homo sapiens, UniProt P52333).
T1 sequence (P52333 whole entry): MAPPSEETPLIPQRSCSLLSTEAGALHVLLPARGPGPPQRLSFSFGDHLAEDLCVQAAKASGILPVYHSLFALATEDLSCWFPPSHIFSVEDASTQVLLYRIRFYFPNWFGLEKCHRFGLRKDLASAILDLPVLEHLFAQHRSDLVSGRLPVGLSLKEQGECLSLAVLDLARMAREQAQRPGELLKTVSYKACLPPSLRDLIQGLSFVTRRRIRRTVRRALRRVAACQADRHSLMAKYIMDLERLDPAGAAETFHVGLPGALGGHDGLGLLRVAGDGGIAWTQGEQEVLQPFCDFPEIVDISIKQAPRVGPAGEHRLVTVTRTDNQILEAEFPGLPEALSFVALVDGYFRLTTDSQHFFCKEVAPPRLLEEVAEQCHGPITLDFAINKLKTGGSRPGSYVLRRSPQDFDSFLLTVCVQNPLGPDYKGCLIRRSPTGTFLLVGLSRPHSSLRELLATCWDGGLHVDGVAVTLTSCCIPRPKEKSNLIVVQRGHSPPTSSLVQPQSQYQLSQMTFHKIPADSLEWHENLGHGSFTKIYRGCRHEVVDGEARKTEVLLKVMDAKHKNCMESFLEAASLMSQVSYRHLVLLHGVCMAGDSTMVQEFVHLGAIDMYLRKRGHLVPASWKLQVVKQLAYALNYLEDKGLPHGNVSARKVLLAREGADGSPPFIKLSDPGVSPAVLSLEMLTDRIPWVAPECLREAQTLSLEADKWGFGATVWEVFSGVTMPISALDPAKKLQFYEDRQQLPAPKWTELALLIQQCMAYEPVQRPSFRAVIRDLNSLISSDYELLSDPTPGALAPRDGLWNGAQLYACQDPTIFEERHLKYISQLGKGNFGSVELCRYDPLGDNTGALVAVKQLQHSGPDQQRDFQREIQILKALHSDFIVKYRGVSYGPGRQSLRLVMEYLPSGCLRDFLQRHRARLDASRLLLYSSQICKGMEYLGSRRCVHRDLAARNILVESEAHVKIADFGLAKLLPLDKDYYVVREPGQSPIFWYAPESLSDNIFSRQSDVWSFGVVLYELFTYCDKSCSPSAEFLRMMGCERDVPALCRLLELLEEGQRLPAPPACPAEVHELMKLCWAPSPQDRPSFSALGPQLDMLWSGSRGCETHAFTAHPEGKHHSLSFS
As to the kind of experiment: Inhibition of JAK3 (unknown origin).

Sequence of Vascular endothelial growth factor receptor 2 (P35968 whole entry, the tested form may be a part): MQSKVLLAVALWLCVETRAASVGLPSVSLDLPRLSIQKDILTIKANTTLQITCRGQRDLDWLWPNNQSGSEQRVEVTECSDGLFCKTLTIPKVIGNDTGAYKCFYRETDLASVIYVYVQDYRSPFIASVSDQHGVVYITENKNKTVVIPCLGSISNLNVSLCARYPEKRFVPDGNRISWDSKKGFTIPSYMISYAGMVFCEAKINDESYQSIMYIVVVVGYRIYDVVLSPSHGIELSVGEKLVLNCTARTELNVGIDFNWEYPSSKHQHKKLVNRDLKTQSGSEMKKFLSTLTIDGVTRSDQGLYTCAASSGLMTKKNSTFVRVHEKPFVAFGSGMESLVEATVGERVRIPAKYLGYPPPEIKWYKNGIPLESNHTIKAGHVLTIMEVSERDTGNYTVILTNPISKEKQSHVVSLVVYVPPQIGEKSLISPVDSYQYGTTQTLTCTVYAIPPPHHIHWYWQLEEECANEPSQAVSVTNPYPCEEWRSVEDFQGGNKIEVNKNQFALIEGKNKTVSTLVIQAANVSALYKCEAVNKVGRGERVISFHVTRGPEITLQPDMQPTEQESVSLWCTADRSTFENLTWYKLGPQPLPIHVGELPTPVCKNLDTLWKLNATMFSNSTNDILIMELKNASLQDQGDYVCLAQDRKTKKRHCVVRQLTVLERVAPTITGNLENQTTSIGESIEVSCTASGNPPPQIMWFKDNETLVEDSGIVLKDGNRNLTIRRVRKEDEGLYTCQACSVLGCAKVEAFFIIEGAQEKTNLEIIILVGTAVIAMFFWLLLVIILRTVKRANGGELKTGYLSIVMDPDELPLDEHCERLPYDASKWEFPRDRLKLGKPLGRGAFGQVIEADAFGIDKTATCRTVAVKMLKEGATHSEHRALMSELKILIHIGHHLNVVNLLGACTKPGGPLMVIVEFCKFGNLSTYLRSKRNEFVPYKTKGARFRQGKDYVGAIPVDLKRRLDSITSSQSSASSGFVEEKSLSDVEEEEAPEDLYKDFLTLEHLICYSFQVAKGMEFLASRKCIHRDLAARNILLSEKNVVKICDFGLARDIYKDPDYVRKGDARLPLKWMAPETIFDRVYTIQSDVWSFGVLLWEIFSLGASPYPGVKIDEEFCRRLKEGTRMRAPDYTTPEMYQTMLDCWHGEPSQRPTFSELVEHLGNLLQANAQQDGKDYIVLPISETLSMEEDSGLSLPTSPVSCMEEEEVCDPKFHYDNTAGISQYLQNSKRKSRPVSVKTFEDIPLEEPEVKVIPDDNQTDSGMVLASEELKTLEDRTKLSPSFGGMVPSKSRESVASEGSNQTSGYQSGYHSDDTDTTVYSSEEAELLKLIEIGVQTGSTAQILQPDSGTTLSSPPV

One may read the IC50 as the concentration that gives 50% inhibition. As to `COc1ccc(-n2nc(C)c3c(Nc4ccc(NC(=O)Nc5ccc(Cl)c(C(F)(F)F)c5)cc4)ncnc32)cc1`, the half-inhibitory concentration (IC50) in experiment [1] came out at 0.22 µM.

With `O=[N+]([O-])c1cccc(Nc2nc(SCCc3ccccc3)nc3[nH]ncc23)c1`, the half-inhibitory concentration (IC50) in experiment [2] was 5.1 µM.

As a reminder, the EC50 is the concentration at which the effect is half-maximal. A low value points to an effect from little substance. Consider `Cc1c(C(=O)Nc2ccc(Oc3ncnc4c3cnn4C)c(F)c2)nnn1-c1ccc(F)cc1`, for which the EC50 in the experiment on MCF7, in the experiment with HepG2 and in the experiment with A549 was no more than 10 µM in each case.

`O=C(Oc1nc(SCCc2ccccc2)nc2[nH]ncc12)c1cc2ccccc2o1`: in experiment [2], the IC50 turned out to be 6.8 µM.

`C=CC(=O)Nc1cccc(Cn2ncc3cnc(Nc4cnn(CCOC)c4)nc32)c1`: the Ratio IC50 in the experiment listed under Homo sapiens [3] and in the experiment filed under Homo sapiens [4] was greater than 376 each time.

For `C[C@@H]1CCN(C(=O)CC#N)C[C@@H]1N(C)c1ncnc2[nH]ncc12`, the IC50 in experiment [5] stood at 0.0016 µM.

The record behind these values is ChEMBL document CHEMBL4673190, “Recent developments in anticancer kinase inhibitors based on the pyrazolo[3,4-d]pyrimidine scaffold” (RSC Med Chem, 2020).
